SMILES	melting point
Cc1c(C)c2c(c(C)c1NC(=O)CC(C)(C)C)C(c1ccc(C(C)CCO)cc1)CO2 (stereo not drawn)	145 to 147 °C
CC(C)(C)c1cc(CCC2NC(=O)NC2=O)cc(C(C)(C)C)c1O (stereo not drawn)	207 to 208 °C
O=C(C=Cc1ccco1)Nc1nnn[nH]1	287 to 289 °C
CCCCCCCC(=O)C(CC(=O)OCC)C(=O)OCC (stereo not drawn)	138 to 142 °C
C=CCON=C(C(=O)O)c1nc(NC=O)sc1Cl	166 to 167 °C
O=C(O)c1ncn2c1[C@@H]1CCN1C(=O)c1cc(F)ccc1-2	159 to 160 °C
CCCC1(C(=O)NCCN2CCC(N3Cc4ccccc4C3=O)CC2)c2ccccc2-c2ccccc21	219 to 221 °C
O=c1ccc(-c2ccc(F)cc2)nn1CCF	145 °C
COc1c(I)cc(-c2c3ccccc3cc3sc4ccccc4c23)cc1I	228 to 230 °C
COc1cccc(CC(=O)N[C@H]2N=C(c3ccccc3)c3ccccc3N(C)C2=O)c1	198 to 199 °C
Cc1cc(O)c(S(=O)(=O)CC(C)C)c(=O)o1	90 to 91 °C
CCn1cc(CC(=O)O)c(OCCCn2cc(C(=O)NCc3ccc(Cl)cc3Cl)c(OC(C)C)n2)n1	138 to 139 °C
Cc1ccc(Oc2cncc3sc(C(N)=O)cc23)cc1	196 to 197 °C
N#CCCNC(=O)c1cccc(-c2ccc3ncn(Cc4ccc(Cl)cc4Cl)c3n2)c1	218 to 219 °C
Cc1nn(C)c(O)c1C(=O)c1ccc(Cl)cc1Cl	165 to 166 °C
COc1cc2c(Nc3ccc(C)c(OC(C)=O)c3)ncnc2cc1OCc1ccsc1	201 to 203 °C
Cc1cc(SC(C)C)c(NC(=O)CCCCCCSc2nc3cccc(C(F)(F)F)c3o2)c(SC(C)C)n1	76 to 78 °C
CN(C(=O)Oc1ccc(Cl)c(C(C)(C)C)c1)c1cccc(Cl)c1	65 to 67 °C
CN1CCN(c2nn3ccnc3c3c2CCCC3)CC1	79.5 °C
c1ccc(COc2ccc(C(c3ccc(OCc4ccccc4)cc3)n3cncn3)cc2)cc1	134 to 137 °C
CN(C)N=Nc1ccsc1C(N)=O	168 to 170 °C
CNc1cc(Oc2ccc3c(c2)OCCN3C(=O)Nc2ccc(C)c(C(F)(F)F)c2)ncn1	180 to 182 °C
CC(C)n1cc(C(=O)O)c2ccc([N+](=O)[O-])cc21	242 to 243 °C
CCC(Oc1c(F)ccc(C)c1F)C1=NCCN1 (stereo not drawn)	70.5 to 71 °C
Cc1cc(O)cc2cc(-c3ccc(O)c(F)c3)oc12	196 to 198 °C

SMILES	melting point
COC(=O)c1cc(-c2nc(CCl)c(C)o2)ccc1C	89 to 90 °C
N#Cc1[nH]c(-c2ccc(Cl)cc2Cl)nc1N	223 to 225 °C
N#CCC(=O)Nc1ccc(N)c([N+](=O)[O-])c1	218 to 221 °C
O=[N+]([O-])c1ccc(Oc2ccc(C3(c4ccc(Oc5ccc([N+](=O)[O-])c(O)c5)cc4)C4CC5CC(C4)CC3C5)cc2)cc1O	248 to 250 °C
O=C(O)CCc1c(-c2cc(Cl)ccc2O)c2cc(C(F)(F)F)ccc2[nH]c1=O	255 to 258 °C
Cn1c(=O)c(-c2c(Cl)cccc2Cl)cc2cnc(Nc3ccc4c(c3)OCO4)nc21	240 to 241 °C
Cc1oc(-c2ccco2)nc1COc1ccc(COc2nn(Cc3ccccc3)cc2CO)cc1OCc1ccccc1	145 to 146 °C
Cc1c(N2C[C@@H](NC(=O)C(F)(F)F)C3(CC3)C2)c(F)c(N)c2c(=O)c(C(=O)O)cn(C3CC3)c12	246 to 248 °C
CCOC(=O)CNc1ccc2oc3c(OC)ccc(C(=O)Nc4c(Cl)cncc4Cl)c3c2c1	> 270 °C
Cc1ccc(-c2c3n(c(=O)c4ncccc24)CCN(Cc2cc(C(F)(F)F)cc(C(F)(F)F)c2)C3=O)cc1	270 to 271 °C
CN(C(=O)c1coc(C=Cc2ccc(C(F)(F)F)cc2)n1)c1ccc(CCCCn2ccnn2)cc1	127 to 129 °C
CCOCc1cc2cc(Br)ccc2oc1=Nc1ccc(C)cc1	116 to 117 °C
CCCCCCCNC(=O)N(C)c1cccc(-c2ccc(CCC(=O)O)cc2)n1	108 °C
N#CC(Cc1c[nH]cn1)(c1ccccc1)c1ccc(Cl)cc1Cl (stereo not drawn)	215 to 218 °C
COC(=O)c1ccc2c(c1)C(SCCI)c1ccccc1CO2 (stereo not drawn)	111 to 113 °C
O=C(O)CCC(=O)c1ccc(-c2ccc(C(F)(F)F)cc2)cc1	172 to 174 °C
CCC(CC)(CO)c1cc(Cl)nnc1Cl	85 to 87 °C
O=C1Nc2ccc3cn[nH]c3c2C1=O	> 300 °C
O=C1C=C(O)CC(c2ccc3c(c2)CCC3)C1 (stereo not drawn)	198 °C
CC1Oc2ccc(Cn3ccnc3)cc2NC1N (stereo not drawn)	152 to 156 °C
O=C(Nc1ccc2ccc(Br)nc2n1)c1ccc(F)cc1	228 °C
CC1c2cc(C(C)(C)C)cc(C(C)(C)C)c2OP(OCCNC(C)(C)C)Oc2c1cc(C(C)(C)C)cc2C(C)(C)C (stereo not drawn)	174 to 175 °C
CC(C)(C)c1ncc(C=O)cn1	82 to 83 °C
I[Si](c1ccccc1)(c1ccccc1)c1ccccc1	221 to 225 °C

The next lines start with the values.

melting point	SMILES
230 to 232 °C	COc1cc(N2CCN([C@H]3CC[C@H](c4cn(C)c5ccc(C#N)cc54)CC3)CC2)c2nccc(C)c2c1
207 to 211 °C	CC(CO)Nc1c([N+](=O)[O-])cnc2ccccc12 (stereo not drawn)
119 to 121 °C	CCCC(=O)c1cnc2c(OC)cccc2c1Nc1ccsc1CC
153 to 155 °C	CCOC(=O)C1=C(C)NC(=S)N(C(=O)OCC)C1c1ccccc1OCc1ccccc1 (stereo not drawn)
196 °C	COCc1ccn2nc(S(=O)(=O)Nc3c(C)cccc3Cl)nc2n1
195 to 197 °C	CC(C)S(=O)(=O)c1ccccc1Nc1nc(Nc2ccc3c(c2)C(C)(C)CCC(=O)N3C)ncc1Cl
107 to 110 °C	O=S(=O)(CCCCCOc1ccc(C2=C(c3ccccc3)CCCc3cc(OC4CCCCO4)ccc32)cc1)CCCC(F)(F)C(F)(F)F (stereo not drawn)
233 to 235 °C	O=C(O)c1ccc(N2CCSCC2)cc1
95 to 96 °C	CCOC(=O)c1ccc(-c2nn(Cc3ccccc3)c3ccccc23)cc1
188 °C	CC(C)NC(=O)COC1c2ccccc2C(=O)N1c1ccc2ccc(Cl)nc2n1 (stereo not drawn)
156 °C	CC(C)(C)OC(=O)N1CCN(C(c2ccccc2)c2ccc(Cl)cc2)CC1 (single isomer, unassigned; (-))
155 °C	O=Cc1c(Br)nc(Sc2ccccc2)n1Cc1cc2c(cc1Cl)OCO2
87 to 90 °C	CS(=O)(=O)OCC1CCN(C(=O)c2ccccc2)CC1
128 to 129 °C	Cc1c(NC(=O)c2ccc(-c3ccccc3Cl)cc2)ccc2cc(CN3CCCC3)cnc12
221 to 222 °C	CC1C2=C(CN=C(c3ccccc3Cl)c3cc(Cl)ccc32)C(=O)N1CC(N)=O (stereo not drawn)
63 to 68 °C	O=C(N1CCC(c2nc(-c3c(Cl)cccc3Cl)no2)CC1)N1CCCc2ccccc21
143 to 144 °C	COC1(C(O)CN2CCC(n3c(=O)[nH]c4ccccc43)CC2)COc2ccccc2O1 (stereo not drawn)
138 °C	C=COCCN1CCC(Nc2nc3ccccc3n2Cc2ccc(F)cc2)CC1
42 °C	O=C(Cl)c1cnc(Cl)nc1-c1ccccc1
113 to 115 °C	Cc1ccc([C@H](CC(=O)O)NC(=O)Nc2c(O)ccn(Cc3ccccc3Cl)c2=O)cc1
98 to 100 °C	OC1Cc2ccccc2C1O (stereo not drawn)
238 °C	Cc1ccc(-c2nc(CN3CCN(C(c4ccccc4)c4ccccc4)CC3)c(C)[nH]2)cc1
225 °C	O=C(NCc1ccc(F)cc1)c1nc2n(c(=O)c1O)CCN2Cc1ccccc1
218 to 219 °C	C=CCSc1cc(C(=O)O)cc(S(N)(=O)=O)c1Oc1ccccc1
77 to 78 °C	Cc1cc2n(c1)CN(CCCO)c1ccccc1-2

melting point	SMILES
218 to 219 °C	Cc1ccc2nc(-n3nc4c(c3O)-c3ccccc3CC4)sc2c1
134 to 136 °C	CCCCNc1cc(C(=O)O)cc(S(N)(=O)=O)c1-c1ccccc1
142 to 143 °C	COc1ccc2c(c1)C(n1cc[nH]c1=S)CCC2 (stereo not drawn)
137 to 138 °C	CN1C(=O)CC[C@]2(C)c3ccc(SCc4ccccc4)cc3CC[C@@H]12
105 to 112 °C	Cc1cc(N)nc(C)c1-c1ccccc1
161 to 164 °C	CC12CCC3C(C=CC4=CC(=O)CCC43CO)C1CCC2C(=O)CO (stereo not drawn)
161 to 166 °C	CCN1CCCC1CNC(=O)c1ccc2c(c1)C(=O)C1(CC1)O2 (stereo not drawn)
162 to 166 °C	O=C(NO)c1ccc2c(c1)CN(C(=O)c1ccc3ccccc3n1)C2
137 to 139 °C	O=C(NCc1ccccc1)c1ccnc(-n2cnn(CC3CC3)c2=O)c1
96.5 to 97 °C	CCCCOc1ccc(C=C(C#N)S(C)(=O)=O)cc1
190 °C	CC(=O)Nc1ccccc1C=C1c2ccccc2CCc2ccccc21
267 to 268 °C	CNC(=O)Cc1nn(-c2ccccc2)c(=O)c2c1c1c(Br)cccc1n2C
186 to 187 °C	Cc1ncsc1CCOc1ccc(NC(=O)c2cc(F)cc(N3CCOCC3)c2)c2ccccc12
83 to 86 °C	Brc1cccc(Oc2ccccc2)n1
128 to 130 °C	O=C1CC2CCc3ccc(F)cc3C2=NN1c1ccc(OCC2CO2)cc1 (stereo not drawn)
185 to 187 °C	COC(=O)C1=Cc2cc(-c3ccc4c(c3)OCO4)ccc2S(=O)(=O)CC1
111 to 112 °C	COc1ccc(N2CCN(Cc3cn4cc(Cl)ccc4n3)CC2)cc1
175 to 177 °C	O=C(c1ccc(-c2ccccc2)cc1)N1Cc2cccnc2Nc2ccccc21
193 to 195 °C	CCCCc1ccc(-c2coc(C(=O)O)cc2=O)cc1
228 to 230 °C	O=C1CCC(N2Cc3c(OCc4ccc(CN5CC6CCC(C5)O6)cc4)cccc3C2=O)C(=O)N1 (stereo not drawn)
191 °C	[N-]=[N+]=C1C(=O)Oc2cc(OCc3ccccc3)ccc2C1=O
70 to 74 °C	CCOP(=O)(OCC)C1=C(C(=O)OC(c2ccccc2)c2ccccc2)N2C(=O)C(NC(=O)COc3ccccc3)C2CC1 (stereo not drawn)
150 to 153 °C	CC(=O)OC1CSC(Oc2cccc(C(C)=O)c2)C(OC(C)=O)C1OC(C)=O (stereo not drawn)
198 to 200 °C	CC(C)(C)CC(=O)c1ccc2c(c1)C=C(C(=O)O)C(C(F)(F)F)O2 (stereo not drawn)

Source: a melting point compilation (Tetko et al.; mined from patent text by program, amines drawn as free bases though some values may be those of a salt)
